# In patent US4535081A, “Antiallergic and antiulcer 1-oxo-1H-thiazolo[3,2-a]pyrimidine-2-carboxamides and intermediates therefor” (Pfizer Inc., priority 1983, dated 1985):
# Experiments:
# [1] = tested on: blood pressure, heart rate and pressor responses; assay: Cardiovascular effects in anesthetized dogs; type: in vivo, dog; conditions: cumulative 5 and 15 mg/kg, i.v.
# [2] = Cardiovascular effects in anesthetized dogs; type: in vivo, dog; conditions: dog, in vivo; cumulative intravenous doses; read-out: ratio of cardiovascular-effect dose to maximally effective intravenous antiallergy dose
# [3] = Oral absorption and plasma concentrations, rats; type: in vivo, rat
# Experimental: (§1) This is supported by the observations of plasma concentrations of 3 to 7 μg/ml one hour after oral administration of III, 50 to 300 mg/kg.
# dogs = assay: Toleration study, oral, seven days, dogs; type: in vivo, dog
# Experimental: In toleration studies, III were given orally by gavage to dogs for a period of seven days at doses of 50, 150 and 300 mg/kg/day.
# [4] = tested on: ulcerogenic effects of aspirin; assay: Protection against ulcerogenic effects of aspirin; type: in vivo; conditions: p.o.; aspirin 100 mg/kg p.o.
# Experimental: Compound III also protects against the ulcerogenic effects of aspirin, 100 mg/kg p.o. where dose-related effects are seen over the dose range of 10 to 1000 μg/kg, p.o. with an ED50 of 100 μg/kg. Compound III is also active in a phenylbutazone gastric ulcer model where an oral ED50 of 200 μg/kg is observed. […] "Cytoprotective," a term coined recently to describe the antiulcer effects of prostaglandins that are independent of antisecretory activity, [Robert, Advances in Prostaglandin and Thromboxane Research 2, 507 (1976); Miller et al., Gut 20, 75 (1979); Robert et al., Gastroenterology 72, 1121 (1977).] aptly characterizes the effects of compound III.
# blood glucose levels = assay: Blood glucose in fasted rats; type: in vivo, rat; conditions: fasted 24 hours; oral 10, 30 or 100 mg/kg
# serum enzyme levels = assay: Serum enzyme levels, intravenous five days, dogs; type: in vivo, dog; conditions: five days, 1, 3, 10, 3 and 3 mg/kg
# [5] = tested on: IgE (reaginic antiserum) PCA reaction; assay: Oral activity in PCA test, IgE; type: in vivo, rat
# Experimental: The antiallergy property of the compounds of this invention is evaluated by the passive cutaneous anaphylaxis (PCA) test (Ovary, J. Immun., 81, 355, 1958). In the PCA test, normal animals are injected intradermally (i.d.) with antibodies contained in serum obtained from actively sensitized animals. The animals are then challenged intravenously with antigen mixed with a dye such as Evans' Blue. The increased capillary permeability caused by the antigen-antibody reaction causes the dye to leak from the site of the antibody injection. The test animals are then asphyxiated and the intensity of the reaction determined by measuring the diameter and intensity of the blue coloration on the inner surface of the animals' skin.
# The PCA test is a measure of the anti-allergic (especially anti-asthmatic) activity of a compound. Compounds which inhibit a positive PCA test induced by the rat immunochemical counterpart of human immunoglobulin E (IgE), or reagin, are considered to have anti-allergic activity (C. Mota, Ann. N.Y. Acad. Sci., 103, 264 1963). (Reagin is primarily immunoglobulin E [IgE] and is the principal immunoglobulin responsible for allergic asthma, anaphylaxis, hay fever, food sensitivities and certain manifestations of drug sensitivities, although recent evidence ascribes to the IgG class of antibodies a significant role in the mediation of allergic diseases). Such compounds when administered to a sensitized subject, human or animal, prior to the time when the subject comes into contact with antigens or substances to which it is allergic, will prevent the allergic reaction which would otherwise occur. They, therefore, provide a method for the prophylactic treatment of allergy or anaphylactic reactions of a reagin mediated nature.
# To put it another way, such compounds block the release of mediators resulting from the antigen-antibody (allergic) reaction as illustrated in the PCA test using rat homocytotropic antibody--a known correlate of human reaginic antibody. Inhibition of reaginic antigen-antibody reactions in rats, the test animal of the PCA test, is regarded as representative of inhibition of human reaginic antigen-antibody reactions which occur during allergic episodes.
# The ability of agents to interfere with PCA reactions is measured in male Charles River Wistar rats, 170-210 g. Reaginic antiserum, rich in IgE antibodies, is prepared according to Petillo et al., Int. Arch. Allergy, 44, 309 (1973). Hyperimmune antiserum rich in IgG antibodies to hen egg albumin is prepared according to Orange et al., J. Exptl. Med., 127, 767 (1968). Forty-eight hours prior to antigen challenge, the reaginic antiserum is injected intradermally (i.d.) into the shaved skin of a normal rat's back; 5 hours before challenge the hyperimmune antisera is similarly injected. At a third site 60 mcg. histamine dihydrochloride and 0.5 mcg. serotonin creatinine sulfate are injected i.d. just prior to antigen challenge as a check for antihistaminic, antiserotonin and unspecific types of blockage; the compounds of the instant invention or saline are then administered i.v. and immediately followed by the challenge of 5 mg. egg albumen and 2.5 mg. Evans' Blue dye in saline. In the case of oral administration Evans' Blue dye and egg albumin are given 5 minutes after administration of the drug. Thirty minutes later the animals are asphyxiated using chloroform and the skin of the back removed and reversed for observation. A score is assigned each injection site equal to the product of the diameter of the site in mm. and a grade of 0.1, 0.5, 1, 2, 3 or 4 proportional to intensity of dye coloration. The scores for a given injection site are summed for each group of five animals and compared to the saline treated controls. The difference is expressed as percent blockage due to the compound employed. […]
# glucose tolerance = assay: Glucose tolerance in rats; type: in vivo, rat; conditions: 10, 30, or 100 mg/kg p.o. with glucose 1 g/kg p.o.
# Description: This effect may be due to a delayed absorption of glucose related to a possible effect on gastric emptying.
# [6] = tested on: isolated guinea pig ileum (acetylcholine); assay: Isolated ileum spasm, acetylcholine; conditions: 10^-8 to 10^-4 M
# point mutations = assay: Ames test in vitro; type: cell-based
# [7] = Plasma levels after repeated daily dosing; type: in vivo; conditions: after the eighth daily dose of III
# Experimental: as §1
# [8] = oral, 7 days, 50, 150 and 300 mg/kg/day
structure (smiles),measurement,setting,value
"O=C(Nc1nnn[nH]1)c1cnc2sc3c(n2c1=O)CCCC3 [Compound III, N-(5-Tetrazolyl)-1-oxo-1H-cyclohexenothiazolo[3,2-a]pyrimidine-2-carboxamide]",blood pressure,[1],transient hypotension
same,heart rate,[1],variable changes in heart rate
same,pressor responses to epinephrine and bilateral carotid occlusion,[1],diminished slightly
same,selectivity ratio,[2],5 to 15
same,plasma concentration,"[3]; one hour after oral 50 to 300 mg/kg, 60 min",3 to 7 µg/mL
same,oral absorption,"[3]; ratio of comparably effective oral and intravenous doses, PCA test",good oral absorption
same,"emetic effect, capsule after meals","dogs; capsule after, rather than before, meals",could be eliminated
same,gross pathological changes,dogs; [8],No gross pathological changes were observed
same,"microscopic examination of liver, kidney, heart and lung",dogs; [8],did not reveal any changes
same,"dose range of dose-related effects, aspirin ulcer",[4],0.01 to 1 mg/kg
same,blood glucose levels,blood glucose levels,did not exhibit any changes in blood glucose levels
same,serum enzyme levels,serum enzyme levels,remained normal
same,inhibition in vivo at 3 mg/kg,"[5]; Rattus norvegicus, IgE, oral, 3 mg./kg., read-out: Oral Activity (% of Protection) in the PCA Test, IgE",47%
same,oral activity,[5]; oral,excellent oral activity
same,dose range for antiallergy effects,"[5]; rat, in vivo",1 to 10 mg/kg
same,glucose tolerance,glucose tolerance,apparent dose-dependent improvement in glucose tolerance
same,antagonism of spasm of isolated guinea pig ileum,[6],does not antagonize spasms
same,point mutations in Ames test,point mutations,did not induce point mutations
same,levels after the eighth daily dose relative to initial dose,[7],2 to 4 times
